# Laboratory results published in US10799478B2, “Treatment of androgen deprivation therapy associated symptoms” (priority 2014, dated 2020).
# How the values were obtained:
# [1] = system: LnCAP human prostate cancer cells; assay: LnCAP Gene Expression; assay type: cell-based
# [2] = system: healthy human volunteers; assay: Phase Ib Study of Healthy Volunteers; assay type: in vivo; conditions: males
# [3] = system: beagle dogs; assay: Four Week Oral Toxicity Study in Dogs; assay type: in vivo, dog
# Experimental: […] One additional group of three animals/sex serves as the control and receives the vehicle, 80% PEG 3350/20% Vitamin E TPGS (v/v) via oral capsule. The test article or vehicle is administered to all groups via oral capsule, twice a day for 28 consecutive days, at a dose volume of 1.5 mL/kg/dose.
# Observations for mortality, morbidity, injury, and the availability of food and water are conducted twice daily for all animals. Detailed clinical observations are conducted weekly. Body weights are measured and recorded the day after receipt, prior to randomization, and weekly during the study. Food consumption is measured and recorded weekly. Ophthalmoscopic examinations are conducted pretest and prior to the terminal necropsy. Physical examinations are conducted pretest. Neurological examinations are conducted during Weeks 1 and 4. ECG examinations are conducted twice prior to the initiation of dosing and prior to and approximately 2 hours (±15 minutes) after the morning test article administration on Days 3 and 26. […] The toxicokinetic parameters are determined for the test article from concentration-time data in the test species. At study termination, necropsy examinations are performed, organ weights are recorded, and testes, epididymis, and prostates are microscopically examined.
# [4] = system: Sprague-Dawley rat; assay: in vivo; conditions: for Male group mean AUC0-24 hr near termination / Prostate weight (mean % decrease): rats, 6 months
# Experimental: (§1) Vehicle controls (15 rats/sex in main study and 5 rats/sex in recovery study) are given daily oral gavage dose of 5% Vitamin E TPGS, 1% hydroxyethylcellulose, 0.05% Dow Corning Antifoam 1510-US in purified water. Fifteen males and 15 females are assigned to each treatment main study group. Five males and 5 females are assigned to the recovery study for the vehicle control and 150 mg/kg/day groups. […] All administrations are given in a 15 mL/kg volume.
# [5] = in vivo; conditions: both, Sprague-Dawley, rat, in vivo, po
# Experimental: as §1
# [6] = system: dogs; assay: 6 month treatment of dogs (Table 10); assay type: in vivo, dog; conditions: 6 months
# [7] = system: Orx rats; assay: Orchidectomized Rat Assay; assay type: in vivo; conditions: for SV Weight, % Sham: once daily 2 months
structure (smiles),measurement,setting,value
"CC(C)OC(=O)N[C@H]1Cc2c(n(Cc3ccccn3)c3ccc(C#N)cc23)C1 (single isomer, unassigned) [Example 1]",EC50,"[1]; Homo sapiens, LNCaP, AR gene, read-out: LnCAP Gene Expression EC50 (nM) AR",1.64 nM
same,androgenicity in vitro in human prostate cancer cells,[1]; comparison with R1881,less androgenic than R1881
same,"Change from Baseline for P1NP, Comparison to Placebo Difference","[2]; 1 mg, day 14",-2.40 µg/L
same,"Change from Baseline for Procollagen Type I N Propeptide (P1NP), LS Mean","[2]; 1 mg, day 14",-3.55 µg/L
same,"Change from Baseline for P1NP, Comparison to Placebo Difference","[2]; 1 mg, day 28",1.49 µg/L
same,"Change from Baseline for Procollagen Type I N Propeptide (P1NP), LS Mean","[2]; 1 mg, day 28",0.16 µg/L
same,"Change from Baseline for P1NP, Comparison to Placebo Difference","[2]; 1 mg, day 35",-2.26 µg/L
same,"Change from Baseline for Procollagen Type I N Propeptide (P1NP), LS Mean","[2]; 1 mg, day 35",-5.70 µg/L
same,"Change from Baseline for P1NP, Comparison to Placebo Difference","[2]; 5 mg, day 14",3.27 µg/L
same,"Change from Baseline for Procollagen Type I N Propeptide (P1NP), LS Mean","[2]; 5 mg, day 14",2.11 µg/L
same,"Change from Baseline for P1NP, Comparison to Placebo Difference","[2]; 5 mg, day 28",4.20 µg/L
same,"Change from Baseline for Procollagen Type I N Propeptide (P1NP), LS Mean","[2]; 5 mg, day 28",2.88 µg/L
same,"Change from Baseline for P1NP, Comparison to Placebo Difference","[2]; 5 mg, day 35",1.13 µg/L
same,"Change from Baseline for Procollagen Type I N Propeptide (P1NP), LS Mean","[2]; 5 mg, day 35",-2.31 µg/L
same,"Change from Baseline for P1NP, Comparison to Placebo Difference","[2]; 15 mg, day 14",2.49 µg/L
same,"Change from Baseline for Procollagen Type I N Propeptide (P1NP), LS Mean","[2]; 15 mg, day 14",1.34 µg/L
same,"Change from Baseline for P1NP, Comparison to Placebo Difference","[2]; 15 mg, day 28",3.41 µg/L
same,"Change from Baseline for Procollagen Type I N Propeptide (P1NP), LS Mean","[2]; 15 mg, day 28",2.09 µg/L
same,"Change from Baseline for P1NP, Comparison to Placebo Difference","[2]; 15 mg, day 35",0.03 µg/L
same,"Change from Baseline for Procollagen Type I N Propeptide (P1NP), LS Mean","[2]; 15 mg, day 35",-3.41 µg/L
same,"Change from Baseline for P1NP, Comparison to Placebo Difference","[2]; 25 mg, day 14",-0.92 µg/L
same,"Change from Baseline for Procollagen Type I N Propeptide (P1NP), LS Mean","[2]; 25 mg, day 14",-2.07 µg/L
same,"Change from Baseline for P1NP, Comparison to Placebo Difference","[2]; 25 mg, day 28",2.75 µg/L
same,"Change from Baseline for Procollagen Type I N Propeptide (P1NP), LS Mean","[2]; 25 mg, day 28",1.43 µg/L
same,"Change from Baseline for P1NP, Comparison to Placebo Difference","[2]; 25 mg, day 35",0.47 µg/L
same,"Change from Baseline for Procollagen Type I N Propeptide (P1NP), LS Mean","[2]; 25 mg, day 35",-2.97 µg/L
same,"Change from Baseline for P1NP, Comparison to Placebo Difference","[2]; 75 mg, day 14",-3.81 µg/L
same,"Change from Baseline for Procollagen Type I N Propeptide (P1NP), LS Mean","[2]; 75 mg, day 14",-4.96 µg/L
same,"Change from Baseline for P1NP, Comparison to Placebo Difference","[2]; 75 mg, day 28",2.81 µg/L
same,"Change from Baseline for Procollagen Type I N Propeptide (P1NP), LS Mean","[2]; 75 mg, day 28",1.48 µg/L
same,"Change from Baseline for P1NP, Comparison to Placebo Difference","[2]; 75 mg, day 35",2.35 µg/L
same,"Change from Baseline for Procollagen Type I N Propeptide (P1NP), LS Mean","[2]; 75 mg, day 35",-1.09 µg/L
same,increase of exposure with dose,"[3]; dogs given 6 and 60 mg/kg/day, plateau at 60 mg/kg/day",less than dose proportional
same,gender effect on exposure,[3]; male vs female dogs,no gender effect
same,morphologic findings in the testes,"[4]; all dose levels (15, 150, 1500 mg/kg/day)",considered to be adverse
same,accumulation after multiple doses,[4]; any dose group up to Day 182,not observed
same,higher body weight than concurrent controls,"[4]; females, end of treatment period",22%
same,body weight change compared to control,"[4]; males, end of treatment period",−12%
same,Male group mean AUC0-24 hr near termination,[4]; 15 mg/kg/day,15902 ng·h/mL
same,Male group mean AUC0-24 hr near termination,[4]; 150 mg/kg/day,34132 ng·h/mL
same,Prostate weight (mean % decrease),[4]; 150 mg/kg/day,↓ 30%
same,Male group mean AUC0-24 hr near termination,[4]; 1500 mg/kg/day,82690 ng·h/mL
same,Prostate weight (mean % decrease),[4]; 1500 mg/kg/day,↓ 34%
same,NOAEL,[5],< 15 mg/kg/day
same,Prostate weight (mean % decrease),[6]; 3 mg/kg/day,↓ 63%
same,Prostate weight (mean % decrease),[6]; 30 mg/kg/day,↓ 66%
same,Prostate weight (mean % decrease),[6]; 300 mg/kg/day,↓ 75%
same,LV-TA (cm2) ± SD,[7]; 1 mg/Kg/d,0.3378 ± 7.08E−03 cm2
same,LV-TBMC (mg) ± SD,[7]; 1 mg/Kg/d,1.54 ± 0.0256 mg
same,LV-TBMD (mg/cm3) ± SD,[7]; 1 mg/Kg/d,507.4 ± 6.931 mg/cm3
same,"SV Weight, % Sham",[7]; 1 mg/Kg/d po,5.6 % Sham
same,LV-TA (cm2) ± SD,[7]; 3 mg/Kg/d,0.362 ± 0.0138 ^ cm2
same,LV-TBMC (mg) ± SD,[7]; 3 mg/Kg/d,1.79 ± 0.095 mg
same,LV-TBMD (mg/cm3) ± SD,[7]; 3 mg/Kg/d,549 ± 15.965 mg/cm3
same,"SV Weight, % Sham",[7]; 3 mg/Kg/d po,5.5 % Sham
